Assay results reported in PMC3671673, “In Vitro Morphological Assessment of Apoptosis Induced by Antiproliferative Constituents from the Rhizomes of Curcuma zedoaria” (Evidence-based Complementary and Alternative Medicine : eCAM, 2013).
In brackets after ≈: the same amount, converted by molar mass. Marks after values point to notes of the source that are not given here.

Tests used:
MCF-7 cells = test: Hoechst 33342/PI dual staining, quantification of apoptotic/necrotic cells, MCF-7; type: cell-based, human; settings: 48 h
Protocol: Briefly, cells were grown on tissue culture dishes and treated with or without tested compounds at concentrations of 12.5, 25, 40, and 50 μg/mL. After 48 hours, the cells were harvested and washed with cold PBS to a density of 5 × 10^5 cells/mL. The cells were suspended in Hoechst 33342 solution (10 μg/mL) and were incubated at 37°C in CO2 for 7 minutes. After incubation with Hoechst 33342, the cells were counter stained with propidium iodide (2.5 μg/mL). The samples were maintained in the dark for 15 minutes. After staining, an aliquot of cell suspension was placed on a glass microscope slides. The slides were observed immediately under inverted fluorescence microscope (DM16000B, Germany) using UV/488 dual excitation and the fluorescence was measured at ~460 nm emission of Hoechst 33342 dye and >575 nm emission of propidium iodide at 630x magnification. At least 200 total target cells were counted and the numbers of each four cellular states were recorded and analyzed using fluorescence microscopy for quantification of apoptosis and necrosis. The experiment was conducted in triplicates. The percentages of apoptotic and necrotic cells were determined according to the following formula [27]: (1) Percentage of Apoptotic Cells (%) =(LA+DA)/ LN+LA+DN+DA×100,Percentage of Necrotic Cells (%) = DN/LN+LA+DN+DA×100, where LN are live target cells with normal nuclei (Hoechst 33342/PI: blue chromatin with organized structure), LA are live cells with apoptotic nuclei (Hoechst 33342/PI: bright blue chromatin that is highly condensed or fragmented), DN are dead cells with normal nuclei (Hoechst 33342/PI: pink chromatin with organized structure), and DA are dead cells with apoptotic nuclei (Hoechst 33342/PI: bright pink chromatin that is, highly condensed or fragmented).

[1] = test system: noncancer human lung fibroblast cell line (MRC-5); test: Neutral red cytotoxicity assay, MRC-5; type: cell-based; settings: MRC5, isolated compounds, 72 h, mean ± SD of three replicates, read-out: IC50 (μg/mL) MRC-5
Protocol: (§1) The human cancer cells KB, Ca Ski, MCF-7, HCT-116, A549, and noncancer human cell lines (MRC-5) were purchased from the American Tissue Culture Collection (ATCC, USA). The supplemented RPMI 1640 media and eagle minimum essential medium (EMEM) were purchased from Sigma-Aldrich, USA. The supplements or antibiotics such as foetal bovine serum (FBS), penicillin/streptomycin (P/S) (100 μg/mL), amphotericin B (50 μg/mL), and accutase were purchased from PAA Laboratories, Austria. Sodium pyruvate (11 mg/mL) purchased from Sigma-Aldrich, USA. The cells were cultured in a SHEL LAB water-jacketed CO2 incubator with […] tissue culture flasks (Nunc, Denmark), which was observed routinely under inverted microscope (Leica DMI3000 B, Germany) for any contamination and seeded into 96-well flat bottom microtiter plate (Nunc, Denmark). The extract or pure compounds was dissolved in dimethyl sulfoxide (DMSO, Molecular Biology Grade, >99.9%) from Sigma-Aldrich, USA. Microtiter plate incubator shaker (LT Biomax 500) was used and absorbance was measured at 540 nm using an ELISA microplate reader (EMax microplate reader of Molecular Devices, USA). MCF-7 and Ca Ski were cultured in RPMI 1640 media supplemented with 10% v/v FBS, P/S, and amphotericin B and MRC-5 in EMEM media with 10% v/v FBS, P/S, amphotericin B, and sodium pyruvate. The cells were cultured in tissue culture flask in 5% CO2 incubator kept at 37°C in a humidified atmosphere and observed routinely under inverted microscope from any contaminations. Each fresh medium was replaced every 2 or 3 days until cell confluence was achieved and the cells were detached by using accutase.
The in vitro cytotoxicity activity was performed using the neutral red cytotoxicity assay based on the initial protocol as described earlier with some modifications. Briefly, cells were detached from the tissue culture flask with 1.0 mL solution of accutase and PBS solution. The cell pellet was obtained by centrifugation at 1,000 rpm for 5 minutes. The density of the viable cells was counted by 0.4% of trypan blue exclusion in a haemocytometer. Cells were then plated in 96-well microtiter plate (Nunc), at a concentration of 1 × 10^4 cells/well and incubated in a CO2 incubator at 37°C to allow the cells to adhere. After 24 h, the cells were treated with six different concentrations, that is, 1, 10, 25, 50, 75, and 100 μg/mL of each tested agent in three replicates. The plates were incubated for 72 h at 37°C in a 5% CO2 incubator. The untreated cells were regarded as a negative control, whilst cells incubated only with DMSO (0.5%, v/v) were used as a vehicle control. No effect due to the DMSO was observed. Doxorubicin was used as the positive control. After 72 h, the old medium was substituted with fresh medium containing 50 μg/mL neutral red. The 96-well plates were placed into incubator for 3 h. This is to allow the uptake of the vital dye into the lysosomes of viable and undamaged cells. Then, the media was discarded and cells were washed with 200 μL of neutral red washing solution. The dye was eluted from the cells by adding neutral red resorb solution (200 μL). The plate was further incubated for 30 min with rapid agitation on a microtiter plate shaker. The optical density (OD) of the eluted dye was read at 540 nm using a microplate reader. The experiments were conducted in triplicates. […] Cytotoxicity of each test agent is expressed as IC50 value. […]

Ca Ski cells = test: Morphological changes by phase contrast inverted microscope, Ca Ski; type: cell-based, human; settings: 48 h, 12.5-50 μg/mL, phase contrast 200x
Protocol: Observation of morphological changes of apoptotic cells was performed according to the method with slight modifications. Briefly, 5 × 10^5 cells were incubated for 48 hours with or without selected compounds at concentrations of 12.5, 25, 40, and 50 μg/mL in a 60 mm diameter tissue culture dishes. The medium was discarded and cells were washed once with PBS. The morphological changes of the apoptotic cells were observed using phase contrast inverted microscope (Leica DMI 3000B, Germany) at 200x magnifications.

[2] = test system: cervical carcinoma cell line (Ca Ski); test: cells; type: cell-based; settings: Homo sapiens, isolated compounds, 72 h, neutral red, mean ± SD of three replicates, read-out: IC50 (μg/mL) Ca Ski
Protocol: as §1
(§2) The in vitro cytotoxicity activity was performed using the neutral red cytotoxicity assay based on the initial protocol as described earlier with some modifications. Briefly, cells were detached from the tissue culture flask with 1.0 mL solution of accutase and PBS solution. The cell pellet was obtained by centrifugation at 1,000 rpm for 5 minutes. The density of the viable cells was counted by 0.4% of trypan blue exclusion in a haemocytometer. Cells were then plated in 96-well microtiter plate (Nunc), at a concentration of 1 × 10^4 cells/well and incubated in a CO2 incubator at 37°C to allow the cells to adhere. After 24 h, the cells were treated with six different concentrations, that is, 1, 10, 25, 50, 75, and 100 μg/mL of each tested agent in three replicates. The plates were incubated for 72 h at 37°C in a 5% CO2 incubator. The untreated cells were regarded as a negative control, whilst cells incubated only with DMSO (0.5%, v/v) were used as a vehicle control. No effect due to the DMSO was observed. Doxorubicin was used as the positive control. After 72 h, the old medium was substituted with fresh medium containing 50 μg/mL neutral red. The 96-well plates were placed into incubator for 3 h. This is to allow the uptake of the vital dye into the lysosomes of viable and undamaged cells. Then, the media was discarded and cells were washed with 200 μL of neutral red washing solution. The dye was eluted from the cells by adding neutral red resorb solution (200 μL). The plate was further incubated for 30 min with rapid agitation on a microtiter plate shaker. The optical density (OD) of the eluted dye was read at 540 nm using a microplate reader. The experiments were conducted in triplicates. The percentage of inhibition of each of the test samples was calculated according to the following formula using the OD values obtained: percentage of inhibition (%) = (OD control − OD sample)/OD control × 100%. The average of three replicates was then obtained. Cytotoxicity of each test agent is expressed as IC50 value. The IC50 value is the concentration of test agents that cause 50% inhibition or cell death, averaged from the three experiments. The IC50 for each extract was extrapolated from the graphs of the percentage inhibition versus concentration of test agents.

[3] = test system: hormone-dependent breast cancer cell line (MCF-7); test: cells; type: cell-based; settings: Homo sapiens, MCF7; isolated compounds, 72 h, neutral red, mean ± SD of three replicates; read-out: IC50 (μg/mL) MCF-7
Protocol: as §1, §2

C=CC1(C)Cc2occ(C)c2C(=O)C1C(=C)C (stereo not drawn) [Curzerenone, curzerenone]
Percentage of apoptotic cells (%) (MCF-7 cells; MCF-7, 12.5 μg/mL): 4.83 ± 0.58^a %
Percentage of necrotic cells (%) (MCF-7 cells; MCF-7, 12.5 μg/mL): 2.00 ± 1.30^a %
Percentage of apoptotic cells (%) (MCF-7 cells; MCF-7, 25 μg/mL): 5.83 ± 0.76^a %
Percentage of necrotic cells (%) (MCF-7 cells; MCF-7, 25 μg/mL): 3.83 ± 0.60^b %
Percentage of apoptotic cells (%) (MCF-7 cells; MCF-7, 40 μg/mL): 53.00 ± 2.2^b %
Percentage of necrotic cells (%) (MCF-7 cells; MCF-7, 40 μg/mL): 5.50 ± 1.30^c %
Percentage of apoptotic cells (%) (MCF-7 cells; MCF-7, 40 μg/mL, listed as curzerenone): 53.0 ± 2.2%
Percentage of apoptotic cells (%) (MCF-7 cells; MCF-7, 50 μg/mL): 57.33 ± 4.65^b %
Percentage of necrotic cells (%) (MCF-7 cells; MCF-7, 50 μg/mL): 17.83 ± 2.60^d %
IC50 [1]: 20 ± 1.2 µg/mL (≈ 86.8 µM)
morphological changes (in words) (Ca Ski cells): typical apoptotic features
IC50 [2]: 8.9 ± 0.7 µg/mL (≈ 38.6 µM)
IC50 [3]: 40 ± 0.5 µg/mL (≈ 174 µM)

C=C1CCC(C(C)C)=CC2C1CC[C@@]2(C)O (stereo partly drawn) [Alismol, alismol]
Percentage of apoptotic cells (%) (MCF-7 cells; MCF-7, 12.5 μg/mL): 6.17 ± 0.58^a %
Percentage of necrotic cells (%) (MCF-7 cells; MCF-7, 12.5 μg/mL): 3.83 ± 0.30^a %
Percentage of apoptotic cells (%) (MCF-7 cells; MCF-7, 25 μg/mL): 9.17 ± 1.5^b %
Percentage of necrotic cells (%) (MCF-7 cells; MCF-7, 25 μg/mL): 5.17 ± 1.50^b %
Percentage of apoptotic cells (%) (MCF-7 cells; MCF-7, 40 μg/mL): 43.00 ± 1.0^d %
Percentage of necrotic cells (%) (MCF-7 cells; MCF-7, 40 μg/mL): 38.33 ± 1.30^c %
Percentage of apoptotic cells (%) (MCF-7 cells; MCF-7, 40 μg/mL, listed as alismol): 43.0 ± 1.0%
Percentage of apoptotic cells (%) (MCF-7 cells; MCF-7, 50 μg/mL): 29.63 ± 1.1^c %
Percentage of necrotic cells (%) (MCF-7 cells; MCF-7, 50 μg/mL): 58.97 ± 1.10^d %
Percentage of necrotic cells (%) (MCF-7 cells; MCF-7, 50 μg/mL, listed as alismol): 59.0 ± 1.1%
IC50 [1]: > 100 µg/mL
morphological changes (in words) (Ca Ski cells): typical apoptotic features
IC50 [2]: 8.7 ± 1.1 µg/mL (≈ 39.5 µM)
IC50 [3]: 10 ± 0.7 µg/mL (≈ 45.4 µM)
